Broadly, the IC50 is the point on the concentration scale where inhibition reaches its midpoint. Usually inhibition stands for the relative decrease from the control value, in per cent.

The first assay addresses T1, human RORγt (Ligand Binding Domain) (Homo sapiens, UniProt P51449).
T1 construct: purchased Crelux (Planegg, Germany) batch no PC5032-1
T1 sequence (P51449 269-508 limits assumed): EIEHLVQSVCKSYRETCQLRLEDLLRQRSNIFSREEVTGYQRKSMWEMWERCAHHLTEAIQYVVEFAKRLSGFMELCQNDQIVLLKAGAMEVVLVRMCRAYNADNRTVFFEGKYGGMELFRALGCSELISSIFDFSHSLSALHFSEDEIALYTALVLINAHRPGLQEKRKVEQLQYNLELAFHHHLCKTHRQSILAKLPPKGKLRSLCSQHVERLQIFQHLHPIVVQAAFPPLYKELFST
The experiment in a line: Fluorescence Polarization (FP) Assay. As to conditions: 100 nM human RORγt LBD, 25 nM TAMRA probe, values are activity range bounds. How it is done:
(§1) The activity of the compounds was evaluated using a Fluorescence Polarization (FP) Assay and, RORγ Reporter assay (also referred to as Gal4 assay). The FP assay is an in vitro assay monitoring binding within the ligand binding pocket. The RORγ and the Th17 assays (another suitable assay) are both cell-based assays monitoring functional activity of the compound assayed.
Fluorescence Polarization (FP) Assay
The total volume was 25 μl, in a black Perkin Elmer OptiPlate. As negative control, 1 μl DMSO was used. […] The probe is a fluorescently labeled (TAMRA) RORγt ligand identified by Nuevolution with a total molecular weight of 910 g/mole as shown in Graph A in FIG. 1.
(Polarisation of emitted light reports the rotation of a fluorescent probe.)
In the case of `OC1(CNc2ncnc(N(Cc3ccc(C(F)(F)F)cc3)C3CC3)c2F)CCC(F)(F)CC1` [Example A44, 1-[[[6-[cyclopropyl-[[4-(trifluoromethyl)phenyl]methyl]amino]-5-fluoro-pyrimidin-4-yl]amino]methyl]-4,4-difluoro-cyclohexanol], the IC50 is < 0.5 µM. Regarding `COc1ccc(CN(C)c2ncnc(NCc3ccc(CC(N)=O)cc3)c2F)c(OC)c1` [Example A139, 2-[4-[[[6-[(2,4-dimethoxyphenyl)methyl-methyl-amino]-5-fluoro-pyrimidin-4-yl]amino]methyl]phenyl]acetamide], the IC50 was < 2 µM.

For `CS(=O)(=O)N1CCC(CNc2ncnc(N(Cc3ccc(C(F)(F)F)cc3)C3CC3)c2F)C1` (stereo not drawn) [Example A158, N4-cyclopropyl-5-fluoro-N6-[(1-methylsulfonylpyrrolidin-3-yl)methyl]-N4-[[4-(trifluoromethyl)phenyl]methyl] pyrimidine-4,6-diamine], the concentration for half-maximal inhibition (IC50) was < 0.5 µM. Still for that read-out and setting: for `CC1CCC(CNc2ncnc(N(Cc3ccc(C(F)(F)F)cc3)C3CC3)c2F)CC1` (stereo not drawn) [Example A32, N6-cyclopropyl-5-fluoro-N4-[(4-methylcyclohexyl)methyl]-N6-[[4-(trifluoromethyl)phenyl]methyl] pyrimidine-4,6-diamine] the value was < 0.5 µM; for `N#Cc1ccc(CN(c2ncnc(NCc3ccc(CC(N)=O)cc3)c2F)C2CC2)cn1` [Example A93, 2-[4-[[[6-[(6-cyano-3-pyridyl)methyl-cyclopropyl-amino]-5-fluoro-pyrimidin-4-yl]amino]methyl]phenyl]acetamide], < 2 µM; for `CN(Cc1ccc(-n2cccn2)cc1)c1ncnc(NCc2ccc(-c3nnn[nH]3)cc2)c1F` [Example A134, 5-fluoro-N6-methyl-N6-[(4-pyrazol-1-ylphenyl)methyl]-N4-[[4-(1H-tetrazol-5-yl)phenyl]methyl]pyrimidine-4,6-diamine], < 2 µM. The same measure, in the same setting: for `O=C(O)C[C@H](Nc1ncnc(N(Cc2ccc(C(F)(F)F)cc2)C2CC2)c1F)c1ccccc1` [Example A182, (3S)-3-[[6-[cyclopropyl-[[4-(trifluoromethyl)phenyl]methyl]amino]-5-fluoro-pyrimidin-4-yl]amino]-3-phenyl-propanoic acid] the value was < 10 µM.

Take `COc1cc(CN(c2ncnc(NCc3ccc(CC(N)=O)cc3)c2F)C2CC2)ccc1Cl` [Example A156, 2-[4-[[[6-[(4-chloro-3-methoxy-phenyl)methyl-cyclopropyl-amino]-5-fluoro-pyrimidin-4-yl]amino]methyl]phenyl]acetamide]: the IC50 is < 0.5 µM. Same read-out and setting: the same measure for `CC(c1cccc2ccccc12)N(C)c1ncnc(NCc2ccc(CC(N)=O)cc2)c1F` (stereo not drawn) [Example A131, 2-[4-[[[5-fluoro-6-[methyl-[1-(1-naphthyl)ethyl]amino]pyrimidin-4-yl]amino]methyl]phenyl]acetamide]: < 0.5 µM; for `CS(=O)(=O)N1CCC(CNc2ncnc(N(Cc3ccc(C(F)(F)F)cn3)C3CC3)c2F)C1` (stereo not drawn) [Example A166, N6-cyclopropyl-5-fluoro-N4-[(1-methylsulfonylpyrrolidin-3-yl)methyl]-N6-[[5-(trifluoromethyl)-2-pyridyl]methyl]pyrimidine-4,6-diamine]: < 10 µM; for `CN(Cc1cccc(-n2cccn2)c1)c1ncnc(NCC2(O)CCS(=O)(=O)CC2)c1F` [Example A140, 4-[[[5-fluoro-6-[methyl-[(3-pyrazol-1-ylphenyl)methyl]amino]pyrimidin-4-yl]amino]methyl]-1,1-dioxo-thian-4-ol]: < 10 µM. On the same count and under the same terms, the same measure for `Cn1cc(CN(c2ncnc(NCc3ccc(CC(N)=O)cc3)c2F)C2CC2)cn1` [Example A119, 2-[4-[[[6-[cyclopropyl-[(1-methylpyrazol-4-yl)methyl]amino]-5-fluoro-pyrimidin-4-yl]amino]methyl]phenyl]acetamide]: < 2 µM; for `CN(Cc1ccc2ccccc2c1)c1ncnc(NCc2ccc(CC(N)=O)cc2)c1F` [Example A121, 2-[4-[[[5-fluoro-6-[methyl(2-naphthylmethyl)amino]pyrimidin-4-yl]amino]methyl]phenyl]acetamide]: < 0.5 µM; for `CN(Cc1cccc(-n2cccn2)c1)c1ncnc(NCC2CCOCC2)c1F` [Example A141, 5-fluoro-N6-methyl-N6-[(3-pyrazol-1-ylphenyl)methyl]-N4-(tetrahydropyran-4-ylmethyl)pyrimidine-4,6-diamine]: < 2 µM. For the molecule `Fc1c(NCc2ccsc2)ncnc1N(Cc1ccc(C(F)(F)F)cc1)C1CC1` [Example A21, N6-cyclopropyl-5-fluoro-N4-(3-thienylmethyl)-N6-[[4-(trifluoromethyl)phenyl]methyl] pyrimidine-4,6-diamine], the IC50 is < 1 µM. The same measure, in the same setting: for `CS(=O)(=O)N1CCC(O)(CNc2ncnc(N(Cc3ccc(C(F)(F)F)cc3)C3CC3)c2F)CC1` [Example A69, 4-[[[6-[cyclopropyl-[[4-(trifluoromethyl)phenyl]methyl]amino]-5-fluoro-pyrimidin-4-yl]amino]methyl]-1-methylsulfonyl-piperidin-4-ol] the value was < 0.5 µM; for `CN1CCC(NC(=O)CC2(CNc3ncnc(N(Cc4ccc(C(F)(F)F)cc4)C4CC4)c3F)CCOCC2)C1` (stereo not drawn) [Example A152, 2-[4-[[[6-[cyclopropyl-[[4-(trifluoromethyl)phenyl]methyl]amino]-5-fluoro-pyrimidin-4-yl]amino]methyl]tetrahydropyran-4-yl]-N-(1-methylpyrrolidin-3-yl)acetamide], < 10 µM. `CN(C)CCCNC(=O)CC1(CNc2ncnc(N(Cc3ccc(C(F)(F)F)cc3)C3CC3)c2F)CCOCC1` [Example A153, 2-[4-[[[6-[cyclopropyl-[[4-(trifluoromethyl)phenyl]methyl]amino]-5-fluoro-pyrimidin-4-yl]amino]methyl]tetrahydropyran-4-yl]-N-[3-(dimethylamino)propyl]acetamide]: the IC50 is < 10 µM.

As for `NC(=O)Cc1ccc(CNc2ncnc(N(Cc3ccc(C(F)(F)F)nc3)C3CC3)c2F)cn1` [Example A112, 2-[5-[[[6-[cyclopropyl-[[6-(trifluoromethyl)-3-pyridyl]methyl]amino]-5-fluoro-pyrimidin-4-yl]amino]methyl]-2-pyridyl]acetamide], the IC50 is < 2 µM.

A further assay addresses T2, ligand binding domain of human RORγ (Homo sapiens, UniProt P51449).
T2 construct: host or cells: HEK293t
T2 sequence (P51449 269-508 limits assumed): T1 sequence (P51449 269-508 limits assumed)
In words: RORγ Reporter Assay (Gal4). It is filed as cell-based. The conditions noted are these: HEK-293T, 1 μM test compound, HEK293t RORγ reporter cells, 24 hour; read-out: Gal4 activity range @ 1 μM (% inhibition). How it is done:
as §1
RORγ Reporter Assay (Gal4)
Cell-based RORγ functional assays were performed using a commercially available assay product (INDIGO Biosciences, State College, Pa., USA; product # IB04001). The RORγ reporter cells are HEK293t cells transfected with one vector that provides high level constitutive expression of a hybrid protein comprised of the yeast Gal4-DNA binding domain fused to the ligand binding domain of human RORγ, and a second vector comprising the firefly luciferase cDNA functionally linked to the upstream activation sequence (UAS) of yeast Gal4. A suspension of RORγ Reporter Cells was prepared using the protocol and culture medium provided in the kit product, and 100 μl of the Reporter Cell suspension was then dispensed into wells of a white, collagen-treated, 96-well assay plate. Concentrated stocks of test compounds were prepared in DMSO, then further diluted using media provided in the kit to generate ‘2×-concentration’ treatment media. 100 μl of medium for each respective treatment concentration dispensed into triplicate assay wells, thereby combining with the reporter cells. All media formulations contained 10% charcoal stripped Fetal Bovine Serum, but are otherwise proprietary to INDIGO Biosciences. Final treatment concentrations for each test compound were 1,000 nM and 100 nM, each with 0.1% residual DMSO. Separate control treatments were media supplemented with vehicle only (0.1% DMSO) to determine the constitutive level of RORγ activity in the reporter cells, and the reference inverse-agonist ursolic acid (f.c. 6,000 nM to 8.2 nM in 3-fold decrements) to establish a positive control inverse-agonist dose response. Assay plates were placed in a 37° C., 5% CO2, 85% humidity incubator for 24 hour. Treatment media were then discarded, 100 μl of luciferase detection reagent was added to each well, and relative light units (RLUs) were quantified from each assay well using a plate reading luminometer. Values of average RLU+/−standard deviation were computed for all treatment sets, followed by the calculations of fold-reduction: [Average RLUVehicle/Average RLUTest Cmpd]. Percent-reduction of RORγ activity in response to respective test compound treatments was calculated: [100*(1−[Ave RLUTest Cmpd/Ave RLUVehicle)] where the theoretical minimum reduction (0% reduction) derives from Vehicle treatment only, no treatment compound. In some aspects it may be of interest to provide compounds with selective modulation of RORγ for example compounds that are selective to RORγ over RORα, compounds that are selective for RORγ versus RORPβ, and compounds that are selective for RORγ versus BOTH RORα and RORPβ. It may also be of interest to provide compounds that are selective for RORγ versus further nuclear hormone receptors such as CAR1, FXR, GR, LXRα, LXRβ, PPARα, PXR, RARα, RXRα, TRα, VDR. It is apparent to those skilled in the art that these nuclear hormone receptors are merely examples, and that selectivity against other nuclear receptors may also be of interest. It may for example be of interest to provide compounds that modulate RORγ and one or more further nuclear hormone receptors, as well as compounds that modulate both RORγ and RORα, or RORγ and RORβ. It may also be of interest to provide compounds that modulate RORγ and BOTH RORα and RORP, as well as compounds that modulate both RORγ and one or more further nuclear hormone receptors such as CAR1, FXR, GR, LXRα, LXRβ, PPARα, PXR, RARα, RXRα, TRα, VDR. It is apparent to those skilled in the art that these nuclear hormone receptors are merely examples, and that modulation of even other nuclear receptors may also be of interest. […]
(In general: In a reporter assay the amount or activity of a reporter protein is the signal.)
`CS(=O)(=O)CC1(CNc2ncnc(N(Cc3ccc(C(F)(F)F)cc3)C3CC3)c2F)CCOCC1` [Example A49, N6-cyclopropyl-5-fluoro-N4-[[4-(methylsulfonylmethyl)tetrahydro-pyran-4-yl]methyl]-N6-[[4-(trifluoromethyl)phenyl]methyl] pyrimidine-4,6-diamine]: the inhibition at 1 µM was > 80%.

Staying with this assay, now noted: RORγ Reporter Assay (Gal4), HEK293t reporter cells, compound at 0.1 μM; values are activity range bounds.
In the case of `CS(=O)(=O)CC1(CNc2ncnc(N(Cc3ccc(C(F)(F)F)cc3)C3CC3)c2F)CCOCC1` [Example A49, N6-cyclopropyl-5-fluoro-N4-[[4-(methylsulfonylmethyl)tetrahydro-pyran-4-yl]methyl]-N6-[[4-(trifluoromethyl)phenyl]methyl] pyrimidine-4,6-diamine], the “Gal4 activity range @ 0.1 μM (% inhibition)” value is listed as >80 % inhibition.
